Experimental data as given in patent publication EP0013067A1, “Bicyclic beta-lactam antibacterial agents, their use in pharmaceutical compositions, processes for their preparation and intermediates for use in such processes” (BEECHAM GROUP PLC, priority 1978, dated 1980).
Converted amounts (≈) assume the structure as drawn.

What was measured:
Type in all cases: cell-based
Proteus morganii I580 [1] = test: MIC, microtitre using Nutrient broth; settings: Morganella morganii, inoculum 0.001 ml of an undilute overnight broth culture, unit inferred
Description: (§1) The ninimum inhibitory concentrations (MIC) cf this compound required to inhibit the growth of various bacteria are tabulated balow: […]

Escherichia coli JT 39 [2] = test: MIC, microtitre using Nutrient broth; settings: JT39; Escherichia coli JT 39; Microtitre using Nutrient broth; inoculum 0.001 ml of an undilute overnight broth culture; unit inferred; read-out: MIC Broth
Description: as §1

[3] = test system: Staphylococcus aureus Oxford; test: MIC, microtitre using Nutrient broth; settings: Staphylococcus aureus Oxford; Microtitre using Nutrient broth; inoculum 0.001 ml of an undilute overnight broth culture; unit inferred; read-out: MIC Broth
Description: as §1

Enterobacter cloacae N1 [4] = test: MIC, microtitre using Nutrient broth; settings: Microtitre using Nutrient broth, inoculum 0.001 ml of an undilute overnight broth culture, unit inferred
Description: as §1

Citrobacter freundii E8 [5] = test: MIC, microtitre using Nutrient broth; settings: inoculum 0.001 ml of an undilute overnight broth culture, unit inferred
Description: as §1

Pseudomonas aeruginosa A [6] = test: MIC, microtitre using Nutrient broth; settings: Pseudomonas aeruginosa; Pseudomanas aeruginosa A; Microtitre using Nutrient broth; inoculum 0.001 ml of an undilute overnight broth culture; unit inferred; read-out: MIC Broth
Description: as §1

Escherichia coli 0111 [7] = test: MIC, microtitre using Nutrient broth; settings: Microtitre using Nutrient broth, inoculum 0.001 ml of an undilute overnight broth culture, unit inferred
Description: as §1

E. coli ESS [8] = test: MIC, microtitre using Nutrient broth; settings: Escherichia coli, inoculum 0.001 ml of an undilute overnight broth culture, unit inferred
Description: as §1

Proteus mirabilis C977 [9] = test: MIC, microtitre using Nutrient broth; settings: Proteus mirabilis C977; Microtitre using Nutrient broth; inoculum 0.001 ml of an undilute overnight broth culture; unit inferred; read-out: MIC Broth
Description: as §1

[10] = test system: Staphylococcus aureus Russell; test: MIC, microtitre using Nutrient broth; settings: Staphylococcus aureus Russell; Microtitre using Nutrient broth; inoculum 0.001 ml of an undilute overnight broth culture; unit inferred; read-out: MIC Broth
Description: as §1

Shigella sonnei MB 11967 [11] = test: MIC, microtitre using Nutrient broth; settings: MB11967, inoculum 0.001 ml of an undilute overnight broth culture, unit inferred
Description: as §1

Streptococcus faecalis I [12] = test: MIC, microtitre using Nutrient broth; settings: Enterococcus faecalis, inoculum 0.001 ml of an undilute overnight broth culture, unit inferred
Description: as §1

Serratia marcescens US20 [13] = test: MIC, microtitre using Nutrient broth; settings: inoculum 0.001 ml of an undilute overnight broth culture, unit inferred
Description: as §1

Klebsiella aerogenes A [14] = test: MIC, microtitre using Nutrient broth; settings: Klebsiella aerogenes A; Microtitre using Nutrient broth; inoculum 0.001 ml of an undilute overnight broth culture; unit inferred; read-out: MIC Broth
Description: as §1

[15] = test system: Streptococcus pyogenes CN10; test: MIC, microtitre using Nutrient broth; settings: inoculum 0.001 ml of an undilute overnight broth culture, unit inferred
Description: as §1

[16] = test system: Staphylococcus aureus 1517; test: MIC, DST agar + 10% horse blood; settings: Staphylococcus aureus 1517; DST agar + 10% horse blood; inoculum 0.001 ml of an undilute overnight broth culture; unit inferred; read-out: MIC Agar
Description: as §1

Proteus morganii I580 [17] = test: MIC, DST agar + 10% horse blood; settings: Morganella morganii; Proteus morganii I580; DST agar + 10% horse blood; inoculum 0.001 ml of an undilute overnight broth culture; unit inferred; read-out: MIC Agar
Description: as §1

Escherichia coli JT 39 [18] = test: MIC, DST agar + 10% horse blood; settings: JT39; Escherichia coli JT 39; DST agar + 10% horse blood; inoculum 0.001 ml of an undilute overnight broth culture; unit inferred; read-out: MIC Agar
Description: as §1

Proteus vulgaris W091 = test: MIC, DST agar + 10% horse blood; settings: W091; Proteus vulgaris WO91; DST agar + 10% horse blood; inoculum 0.001 ml of an undilute overnight broth culture; unit inferred; read-out: MIC Agar
Description: as §1

[19] = test system: Staphylococcus aureus Oxford; test: MIC, DST agar + 10% horse blood; settings: Staphylococcus aureus Oxford; DST agar + 10% horse blood; inoculum 0.001 ml of an undilute overnight broth culture; unit inferred; read-out: MIC Agar
Description: as §1

Enterobacter cloacae N1 [20] = test: MIC, DST agar + 10% horse blood; settings: Enterobacter cloacae N1; DST agar + 10% horse blood; inoculum 0.001 ml of an undilute overnight broth culture; unit inferred; read-out: MIC Agar
Description: as §1

[21] = test system: Streptococcus pneumoniae CN33; test: MIC, DST agar + 10% horse blood; settings: Streptococcus pneumoniae CN33; DST agar + 10% horse blood; inoculum 0.001 ml of an undilute overnight broth culture; unit inferred; read-out: MIC Agar
Description: as §1

Citrobacter freundii E8 [22] = test: MIC, DST agar + 10% horse blood; settings: Citrobacter freundii, E8, read-out: MIC Agar
Description: as §1

Pseudomonas aeruginosa A [23] = test: MIC, DST agar + 10% horse blood; settings: Pseudomonas aeruginosa, read-out: MIC Agar
Description: as §1

Escherichia coli 0111 [24] = test: MIC, DST agar + 10% horse blood; settings: Escherichia coli, 0111, inoculum 0.001 ml of an undilute overnight broth culture, unit inferred
Description: as §1

E. coli ESS [25] = test: MIC, DST agar + 10% horse blood; settings: Escherichia coli, inoculum 0.001 ml of an undilute overnight broth culture, unit inferred
Description: as §1

Proteus mirabilis C977 [26] = test: MIC, DST agar + 10% horse blood; settings: Proteus mirabilis C977; DST agar + 10% horse blood; inoculum 0.001 ml of an undilute overnight broth culture; unit inferred; read-out: MIC Agar
Description: as §1

[27] = test system: Salmonella typhimurium CT10; test: MIC, DST agar + 10% horse blood; settings: Salmonella enterica, TYPHIMURIUM, read-out: MIC Agar
Description: as §1

Bacillus subtilis A = test: MIC, DST agar + 10% horse blood; settings: Bacillus subtilis A; DST agar + 10% horse blood; inoculum 0.001 ml of an undilute overnight broth culture; unit inferred; read-out: MIC Agar
Description: as §1

[28] = test system: Staphylococcus aureus Russell; test: MIC, DST agar + 10% horse blood; settings: Staphylococcus aureus Russell; DST agar + 10% horse blood; inoculum 0.001 ml of an undilute overnight broth culture; unit inferred; read-out: MIC Agar
Description: as §1

Shigella sonnei MB 11967 [29] = test: MIC, DST agar + 10% horse blood; settings: MB11967, inoculum 0.001 ml of an undilute overnight broth culture, unit inferred
Description: as §1

Streptococcus faecalis I [30] = test: MIC, DST agar + 10% horse blood; settings: Enterococcus faecalis; Streptococcus faecalis I; DST agar + 10% horse blood; inoculum 0.001 ml of an undilute overnight broth culture; unit inferred; read-out: MIC Agar
Description: as §1

Serratia marcescens US20 [31] = test: MIC, DST agar + 10% horse blood; settings: Serratia marcescens US20; DST agar + 10% horse blood; inoculum 0.001 ml of an undilute overnight broth culture; unit inferred; read-out: MIC Agar
Description: as §1

Klebsiella aerogenes A [32] = test: MIC, DST agar + 10% horse blood; settings: Klebsiella aerogenes A; DST agar + 10% horse blood; inoculum 0.001 ml of an undilute overnight broth culture; unit inferred; read-out: MIC Agar
Description: as §1

Proteus rettgeri WM16 = test: MIC, DST agar + 10% horse blood; settings: Providencia rettgeri; Proteus rettgeri WM16; DST agar + 10% horse blood; inoculum 0.001 ml of an undilute overnight broth culture; unit inferred; read-out: MIC Agar
Description: as §1

[33] = test system: Streptococcus pyogenes CN10; test: MIC, DST agar + 10% horse blood; settings: Streptococcus pyogenes CN10; DST agar + 10% horse blood; inoculum 0.001 ml of an undilute overnight broth culture; unit inferred; read-out: MIC Agar
Description: as §1

Work on `NCC1=C(C(=O)O)N2C(=O)C[C@H]2S1` [compound 37, 2-Aminomethylpenem-3-carboxylic acid] yielded an MIC (Proteus morganii I580 [1]) of 16 µg/mL (≈ 79.9 µM), an MIC (Escherichia coli JT 39 [2]) of 16 µg/mL (≈ 79.9 µM) and an MIC [3] of 2 µg/mL (≈ 9.99 µM). It also gave an MIC (Enterobacter cloacae N1 [4]) of 16 µg/mL (≈ 79.9 µM), an MIC (Citrobacter freundii E8 [5]) of 0.5 µg/mL (≈ 2.5 µM) and an MIC (Pseudomonas aeruginosa A [6]) of 1 µg/mL (≈ 4.99 µM). For the same compound, the MIC (Escherichia coli 0111 [7]) was 8 µg/mL (≈ 40 µM), the MIC (E. coli ESS [8]) was 4 µg/mL (≈ 20 µM) and the MIC (Proteus mirabilis C977 [9]) was 8 µg/mL (≈ 40 µM). It also gave an MIC [10] of 4 µg/mL (≈ 20 µM), an MIC (Shigella sonnei MB 11967 [11]) of 4 µg/mL (≈ 20 µM) and an MIC (Streptococcus faecalis I [12]) of 62 µg/mL (≈ 310 µM). It also gave an MIC (Serratia marcescens US20 [13]) of 16 µg/mL (≈ 79.9 µM), an MIC (Klebsiella aerogenes A [14]) of 8 µg/mL (≈ 40 µM) and an MIC [15] of 1 µg/mL (≈ 4.99 µM). The MIC [16] was over 50 µg/mL, the MIC (Proteus morganii I580 [17]) was over 50 µg/mL and the MIC (Escherichia coli JT 39 [18]) was 50 µg/mL. The MIC (Proteus vulgaris W091) was over 50 µg/mL, the MIC [19] was 5 µg/mL and the MIC (Enterobacter cloacae N1 [20]) was 50 µg/mL. The MIC [21] was 0.5 µg/mL, the MIC (Citrobacter freundii E8 [22]) was 12.5 µg/mL and the MIC (Pseudomonas aeruginosa A [23]) was 12.5 µg/mL. It also gave an MIC (Escherichia coli 0111 [24]) of 25 µg/mL, an MIC (E. coli ESS [25]) of 5 µg/mL and an MIC (Proteus mirabilis C977 [26]) of 25 µg/mL. For the same compound, the MIC [27] was 12.5 µg/mL, the MIC (Bacillus subtilis A) was 2.5 µg/mL and the MIC [28] was 5 µg/mL. For the same compound, the MIC (Shigella sonnei MB 11967 [29]) was 12.5 µg/mL, the MIC (Streptococcus faecalis I [30]) was over 50 µg/mL and the MIC (Serratia marcescens US20 [31]) was 25 µg/mL. It also gave an MIC (Klebsiella aerogenes A [32]) of 50 µg/mL, an MIC (Proteus rettgeri WM16) of over 50 µg/mL and an MIC [33] of 1.25 µg/mL.
